{
  "source": "patent USRE39420E1",
  "about": "“1,2-Diphenylpyrrole derivatives, their preparation and their therapeutic uses” (Sankyo Company, Limited, priority 1996, dated 2006)",
  "key": {"[1]": {"test_system": "IL-1β production in human peripheral monocytes", "experiment": "Inhibitory effect on IL-1β production in LPS-stimulated human peripheral monocytes", "format": "cell-based", "settings": "Monocyte, LPS 10 μg/ml, 20 hours", "procedure": "(§1) (1) Peripheral blood was collected from healthy human volunteers in the presence of heparin. After mixing it with an equal volume of phosphate-buffered saline (PBS, Nissui Pharmaceutical), the mixture was layered onto Ficoll Paque medium (Pharmacia) at the rate of 2:1 and centrifuged at 520×g at 25° C. for 20 minutes. After centrifugation, the monocyte layer was removed and suspended in RPMI 1640 (Nissui Pharmaceutical) containing 10% fetal calf serum (FCS). The monocytes were washed once with the same medium, placed in a plastic Petri dish, pre-treated with human plasma and incubated for 2 hours in the presence of 5% CO2 to cause them to adhere to the dish. After incubation, the Petri dish was washed twice with PBS to remove the non-adherent cells. Thereafter, PBS containing 5% FCS and 0.2% EDTA was added to the Petri dish and the dish was allowed to stand undisturbed for 15 minutes at 4° C. The monocytes were recovered from the dish by pipetting. The cells were finally suspended in RPMI 1640 at a concentration of 1.25×10^5 cells/ml. (2) Culture of Human Monocytes\n(§2) A 40 μl solution of the test compound and 40 μl of lipopolysaccharide (LPS; E. coli, 0.26:B6, Difco), adjusted to a final concentration of 10 μg/ml, were added to 320 μl of cell suspension. The resulting mixture was then cultured for 20 hours in the presence of 5% CO2 and the supernatant was removed at the end of cultivation to assay IL-1β and TNFα. The test compound was dissolved in dimethyl sulfoxide and diluted by a factor of 100 with FCS to reach 10 times the final concentration (the final concentrations of dimethyl sulfoxide and FCS were 0.1% and 10%, respectively).\n(§3) The amount of IL-1β was measured with a commercially available ELISA kit (Cayman), after diluting the supernatant medium by a factor of 15 or 30 with the ELISA buffer. The amount of TNFα was similarly measured by a ELISA kit (Genzyme) after diluting the supernatant by a factor of 2.\n(§4) The IC50 was calculated from the regression line determined by the inhibition rates and the concentrations of the test compound."}, "[2]": {"test_system": "TNFα production in human peripheral monocytes", "experiment": "Inhibitory effect on TNFα production in LPS-stimulated human peripheral monocytes", "format": "cell-based", "settings": "Monocyte, LPS 10 μg/ml, 20 hours", "procedure": "as §1, §2, §3, §4"}, "[3]": {"test_system": "yeast-inflamed pain in rats", "experiment": "Analgesic effect on yeast-inflamed pain in rats (Randall-Selitto method)", "format": "in vivo, Wistar-Imamichi rats", "settings": "Rattus norvegicus, oral, pain threshold 0.5, 1 and 2 hours after administration, read-out: Efficacy Rate (No. of animals in which drug was effective/No. of animals used in test) (converted)", "outline": "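Male Wistar-Imamichi rats were fasted 16 h and given compound orally in 0.5% tragacanth. Paw inflammation was induced by subcutaneous 20% brewer's yeast, and pressure pain threshold was measured from 4.5 h at 0.5, 1 and 2 h. An animal counted as responding if its threshold exceeded twice the control mean, and efficacy rate followed Blake's method.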"}, "[4]": {"test_system": "scald-induced Pain in rats", "experiment": "Scald-induced pain test", "format": "in vivo, Wistar-Imamichi rats", "settings": "oral; pain response time, mean of 1 and 2 hours after dosing", "procedure": "The test was conducted in accordance with the method of Iizuka and Tanaka [Jpn. J. Pharmacol. 70, 697, (1967)]. The test compound was administered in the same manner as in Experiment 3. Male Wistar-Imamichi rats (4-5 week old, body weights: approximately 100 g) were used after fasting for 16 hours. The right hind foot of the animal was immersed in hot water at 57° C. for 6 seconds to induce scald under ether-anesthesia. Two hours later, the scald foot of the rat was irritated by immersing in hot water at 40° C. for 5 seconds, and the animal was returned to the cage. […] Lifting up the scalded foot or licking it without coming in contact with the metal cage were considered to be pain responses. Pain response time was determined as the total time of the pain response during the 30-second observation period. […] Pain response time was again measured 1 and 2 hours after dosing and the mean value was determined. Using the mean values, inhibition rates were calculated relative to the control group. ID50 was calculated from the regression line determined by the inhibition rates and the doses."}, "[5]": {"test_system": "yeast-induced fever", "experiment": "Antipyretic effect on yeast-induced fever", "format": "in vivo, Wistar-Imamichi rats", "settings": "Dose: 0.4 mg/kg, oral; mean of 1 and 2 hours after dosing", "procedure": "The method of Roszkowski et al. [J. Pharmacol. Exp. Ther. 179, 114, (1971)] was slightly modified to perform the test. The test compound was administered in the same manner as in Experiment 3. Male Wistar-Imamichi rats (6 week old, body weights: approximately 120 g) were used in the test. Yeast (Brewer's yeast, Sigma) was suspended in physiological saline to a concentration of 25%, finely crushed in an agate mortar, and injected subcutaneously into the backs of the rats under ether-anesthesia at a volume of 2 ml/rat. The rats were fasted after the injection of yeast. On the following day (19 hours after the yeast injection), a catheter-type thermistor thermometer (Japan Koden, MGA III) was inserted approximately 5 cm into the rectum to measure the temperature of the animals. […] Rectal temperatures were measured 1 and 2 hours after administration of the test compound, and fever temperature was calculated by subtracting the normal temperature of healthy animals measured simultaneously. Inhibition rate of the group treated with the compound relative to the control group was calculated by using the mean value at 1 and 2 hours after dosing."}},
  "data": [
    {"smiles": "Cc1ccc(-c2ccccc2)n1-c1ccc(S(N)(=O)=O)cc1", "note": "[Compound A, 5-methyl-2-phenyl-1-(4-sulfamoylphenyl)pyrrole, reference compound]", "values": [
      {"measurement": "inhibition at 10 µM", "setting": "[1]", "result": 24.2, "unit": "%"},
      {"measurement": "inhibition at 10 µM", "setting": "[2]", "result": 13.9, "unit": "%"}
    ]},
    {"smiles": "COc1ccc(-c2cc(C)cn2-c2ccc(S(N)(=O)=O)cc2)cc1", "note": "[Example 52, 2-(4-Methoxyphenyl)-4-methyl-1-(4-sulfamoylphenyl)pyrrole]", "values": [
      {"measurement": "responders at 12.5 mg/kg", "setting": "[3]", "result": 100, "unit": "%"},
      {"measurement": "ID50", "setting": "[4]", "result": 1.1, "unit": "mg/kg"},
      {"measurement": "Inhibition Rate (%)", "setting": "[5]", "result": 82, "unit": "%"}
    ]}
  ]
}
